In PubChem BioAssay (NCI):
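In this assay, cells in 96-well plates receive the compound at five concentrations for 48 hours. Endpoints are linearly interpolated between the surrounding concentrations. Here, GI50 denotes the concentration required for 50% inhibition of growth. Definition used: TGI = concentration required for complete inhibition of growth.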

Legend:
Test in all cases: inhibition of tumour cell growth, NCI panel, 48 h
[1] = tested on: A498 renal
[2] = tested on: SN12C renal
[3] = tested on: SNB-75 CNS
[4] = tested on: SNB-19 CNS
[5] = tested on: SK-MEL-5 melanoma
[6] = tested on: UACC-257 melanoma
[7] = tested on: OVCAR-3 ovarian
[8] = tested on: MALME-3M melanoma
[9] = tested on: MDA-MB-231 breast
[10] = tested on: SR leukemia

In the case of Clc1ccc(CCNC2(c3cc4ccccc4s3)CCCCC2)cc1Cl, the TGI [1] is reported as 39.9 µM, the TGI [2] is reported as > 100 µM and the TGI [3] is reported as 49.3 µM. For the same molecule, the TGI [4] was > 100 µM, the TGI [5] was 31.7 µM and the TGI [6] was 42.7 µM. It also gave a TGI [7] of 49.2 µM, a TGI [8] of 36.9 µM and a TGI [9] of 43.2 µM. It also gave a TGI [10] of 32.5 µM.

With Cc1cc2c(c(C(=O)NCC(=O)N[C@@H](C)C(=O)OCc3ccccc3)c1)Oc1c(cc(C)cc1C(=O)NCC(=O)N[C@@H](C)C(=O)OCc1ccccc1)S2 the TGI [1] was > 100 µM, the TGI [2] was > 100 µM and the TGI [3] was 46.1 µM. For the same molecule, the TGI [4] was > 100 µM, the TGI [5] was > 100 µM and the TGI [6] was > 100 µM. The TGI [7] was > 100 µM, the TGI [8] was 44.2 µM and the TGI [9] was > 100 µM. The TGI [10] was > 100 µM.

CCOC(=O)/C=C(/C(=O)OCC)n1cc(C)c(=O)n(Cc2cnnn2COCCOC(C)=O)c1=O was tested, and the TGI [1] was 90 µM, the TGI [2] was 52.4 µM and the TGI [3] was > 67.2 µM. For the same molecule, the TGI [4] was > 100 µM, the TGI [5] was 51.5 µM and the TGI [6] was 28.6 µM. The TGI [7] was 32.3 µM, the TGI [8] was 13.3 µM and the TGI [9] was 36.1 µM. It also gave a TGI [10] of 39.6 µM.

COc1ccc2c(c1)N(Cc1ccc(Cl)cc1)CCC2N1CCCC1=O (stereo not given) was tested, and the GI50 [1] was 3.22 µM, the TGI [1] was 49.7 µM and the GI50 [2] was 4.68 µM. It also gave a TGI [2] of 89.1 µM, a GI50 [3] of 3.22 µM and a TGI [3] of 35.8 µM. The GI50 [4] was 4.3 µM, the TGI [4] was 51.7 µM and the GI50 [5] was 2.05 µM. The TGI [5] was 4.61 µM, the GI50 [6] was 3.07 µM and the TGI [6] was 11.2 µM. The GI50 [7] was 4.42 µM, the TGI [7] was > 100 µM and the GI50 [8] was 3.99 µM. The TGI [8] was 27.2 µM, the GI50 [9] was 4.84 µM and the TGI [9] was 98.5 µM. The GI50 [10] was 6.37 µM and the TGI [10] was > 100 µM.

In the case of O=c1[nH]c2ccccc2c(O)c1Cc1ccccc1, the TGI [1] is reported as > 100 µM, the TGI [2] is reported as > 100 µM and the TGI [3] is reported as > 100 µM. For the same molecule, the TGI [4] was > 100 µM, the TGI [5] was > 100 µM and the TGI [6] was > 100 µM. For the same molecule, the TGI [7] was > 100 µM, the TGI [8] was > 100 µM and the TGI [9] was > 100 µM. For the same molecule, the TGI [10] was > 100 µM.

Cc1ccc(S(=O)(=O)N2CCC[C@@H]2C(=O)O[C@@H]2CCC3CC=CC32)cc1 (stereo not given in full) was tested, and the TGI [1] was 81.1 µM, the TGI [2] was > 100 µM and the TGI [3] was > 100 µM. The TGI [4] was > 100 µM, the TGI [5] was 29.2 µM and the TGI [6] was 64.4 µM. The TGI [7] was 38.8 µM, the TGI [8] was 90 µM and the TGI [9] was > 100 µM. For the same molecule, the TGI [10] was 61 µM.

In the case of N[C@H]1c2c(Br)sc(Br)c2C(=O)[C@H]1O, the TGI [1] is reported as > 100 µM, the TGI [2] is reported as 3.63 µM and the TGI [3] is reported as 79.7 µM. For the same molecule, the TGI [4] was 55.5 µM, the TGI [5] was 41.8 µM and the TGI [6] was 29.7 µM. The TGI [7] was > 61.9 µM, the TGI [8] was 29.6 µM and the TGI [9] was 36.1 µM. For the same molecule, the TGI [10] was 5.79 µM.

In the case of COC(=O)CNC(=O)C(Cc1ccccc1)NC(=O)c1ccc(-c2ccc(Cl)cc2Cl)o1 (stereo not given), the TGI [1] is reported as 38.8 µM, the TGI [2] is reported as > 100 µM and the TGI [3] is reported as > 100 µM. For the same molecule, the TGI [4] was > 100 µM, the TGI [5] was > 100 µM and the TGI [6] was 57.5 µM. For the same molecule, the TGI [7] was 72.5 µM, the TGI [8] was 87.4 µM and the TGI [9] was 52.4 µM. It also gave a TGI [10] of 36 µM.

With CC(C)=CC1C(C(=O)Oc2ccccc2C(C)C)C1(C)C (stereo not given) the TGI [1] was 37.1 µM, the TGI [2] was 40.1 µM and the TGI [3] was 62 µM. The TGI [4] was > 100 µM, the TGI [5] was 33.9 µM and the TGI [6] was 44.2 µM. The TGI [7] was 34.6 µM, the TGI [8] was 34.1 µM and the TGI [9] was 52 µM. For the same molecule, the TGI [10] was 61.7 µM.

With COC(=O)c1c(O)ccc2c1c1cc3ccccc3cc1n2Cc1cc(OC)cc(OC)c1 the TGI [1] was > 34.3 µM, the TGI [2] was > 100 µM and the TGI [3] was 8.94 µM. For the same molecule, the TGI [4] was > 100 µM, the TGI [5] was 18.5 µM and the TGI [6] was > 100 µM. For the same molecule, the TGI [7] was 2.45 µM, the TGI [8] was 64.3 µM and the TGI [9] was > 100 µM. The TGI [10] was > 100 µM.

In the case of Oc1c(CN2CCCC2)ccc2cccnc12, the TGI [1] is reported as > 70.3 µM, the TGI [2] is reported as > 83.5 µM and the TGI [3] is reported as > 100 µM. The TGI [4] was > 31.6 µM, the TGI [5] was > 67.7 µM and the TGI [6] was > 100 µM. The TGI [7] was > 82.7 µM, the TGI [8] was > 100 µM and the TGI [9] was > 100 µM. For the same molecule, the TGI [10] was > 100 µM.

For O=C(CCBr)N1CCN(C(=O)CCBr)CC1, the TGI [1] was 165 µM, the TGI [2] was 169 µM and the TGI [3] was 180 µM. The TGI [4] was 198 µM, the TGI [5] was 149 µM and the TGI [6] was 246 µM. The TGI [7] was 218 µM, the TGI [8] was 206 µM and the TGI [9] was 242 µM. For the same molecule, the TGI [10] was 174 µM.

In the case of CN(C)CN1CSC(=S)N(CN(C)C)C1, the TGI [1] is reported as > 100 µM, the TGI [2] is reported as > 100 µM and the TGI [3] is reported as > 100 µM. For the same molecule, the TGI [4] was > 100 µM, the TGI [5] was > 100 µM and the TGI [6] was > 100 µM. The TGI [7] was > 100 µM, the TGI [8] was > 100 µM and the TGI [9] was > 100 µM. It also gave a TGI [10] of 55.2 µM.

With COc1ccc(-n2c(SC(CN3CCOCC3)CN3CCCC3=O)nc3ccccc3c2=O)cc1 (stereo not given) the TGI [1] was > 100 µM, the TGI [2] was > 100 µM and the TGI [3] was > 100 µM. For the same molecule, the TGI [4] was > 100 µM, the TGI [5] was > 100 µM and the TGI [6] was > 100 µM. For the same molecule, the TGI [7] was > 100 µM, the TGI [8] was > 100 µM and the TGI [9] was > 100 µM. For the same molecule, the TGI [10] was > 100 µM.
